ChEMBL document CHEMBL4507284, “Data for DCP probe BI-1230” (2021)

Assays:
[1] = test system: Tyrosine-protein kinase ABL1 (Homo sapiens), P00519 [T315I]; conditions: Compound concentration 1000.0 nM
[2] = target: Activin receptor type-1 (Homo sapiens) (UniProt Q04771); conditions: Compound concentration 1000.0 nM
[3] = target: Tyrosine-protein kinase BTK (Homo sapiens) (UniProt Q06187); conditions: Compound concentration 1000.0 nM
[4] = target: Calcium/calmodulin-dependent protein kinase type 1 (Homo sapiens) (UniProt Q14012); conditions: Compound concentration 1000.0 nM
[5] = target: Calcium/calmodulin-dependent protein kinase type II subunit beta (Homo sapiens) (UniProt Q13554); conditions: Compound concentration 1000.0 nM
[6] = target: Cyclin-dependent kinase 2 (Homo sapiens) (UniProt P24941); conditions: Compound concentration 1000.0 nM
[7] = target: Cyclin-dependent kinase 7 (Homo sapiens) (UniProt P50613); conditions: Compound concentration 1000.0 nM
[8] = target: Dual specificity protein kinase CLK1 (Homo sapiens) (UniProt P49759); conditions: Compound concentration 1000.0 nM
[9] = target: Dual specificity protein kinase CLK2 (Homo sapiens) (UniProt P49760); conditions: Compound concentration 1000.0 nM
[10] = target: Tyrosine-protein kinase CSK (Homo sapiens) (UniProt P41240); conditions: Compound concentration 1000.0 nM
[11] = target: Ephrin type-A receptor 3 (Homo sapiens) (UniProt P29320); conditions: Compound concentration 1000.0 nM
[12] = target: Ephrin type-B receptor 3 (Homo sapiens) (UniProt P54753); conditions: Compound concentration 1000.0 nM
[13] = target: Focal adhesion kinase 1 (Homo sapiens) (UniProt Q05397); conditions: Compound concentration 1000.0 nM
[14] = test system: Receptor-type tyrosine-protein kinase FLT3 (Homo sapiens), P36888 [D835H]; conditions: Compound concentration 1000.0 nM
[15] = test system: Receptor-type tyrosine-protein kinase FLT3 (Homo sapiens), P36888 [D835Y]; conditions: Compound concentration 1000.0 nM
[16] = test system: Receptor-type tyrosine-protein kinase FLT3 (Homo sapiens), P36888 [UNDEFINED MUTATION]; conditions: Compound concentration 1000.0 nM
[17] = target: Glycogen synthase kinase-3 alpha (Homo sapiens) (UniProt P49840); conditions: Compound concentration 1000.0 nM
[18] = target: Serine/threonine-protein kinase MAK (Homo sapiens) (UniProt P20794); conditions: Compound concentration 1000.0 nM
[19] = target: Mitogen-activated protein kinase kinase kinase 3 (Homo sapiens) (UniProt Q99759); conditions: Compound concentration 1000.0 nM
[20] = target: Mitogen-activated protein kinase kinase kinase 4 (Homo sapiens) (UniProt Q9Y6R4); conditions: Compound concentration 1000.0 nM
[21] = target: Dual specificity mitogen-activated protein kinase kinase 6 (Homo sapiens) (UniProt P52564); conditions: Compound concentration 1000.0 nM
[22] = target: Serine/threonine-protein kinase 24 (Homo sapiens) (UniProt Q9Y6E0); conditions: Compound concentration 1000.0 nM
[23] = target: Muscle, skeletal receptor tyrosine-protein kinase (Homo sapiens) (UniProt O15146); conditions: Compound concentration 1000.0 nM
[24] = target: Serine/threonine-protein kinase Nek1 (Homo sapiens) (UniProt Q96PY6); conditions: Compound concentration 1000.0 nM
[25] = target: Serine/threonine-protein kinase Nek10 (Homo sapiens) (UniProt Q6ZWH5); conditions: Compound concentration 1000.0 nM
[26] = target: Serine/threonine-protein kinase NIM1 (Homo sapiens) (UniProt Q8IY84); conditions: Compound concentration 1000.0 nM
[27] = target: Serine/threonine-protein kinase NLK (Homo sapiens) (UniProt Q9UBE8); conditions: Compound concentration 1000.0 nM
[28] = target: Cyclin-dependent kinase 18 (Homo sapiens) (UniProt Q07002); conditions: Compound concentration 1000.0 nM
[29] = target: Phosphatidylinositol 4-phosphate 3-kinase C2 domain-containing subunit beta (Homo sapiens) (UniProt O00750); conditions: Compound concentration 1000.0 nM
[30] = target: Phosphatidylinositol 3-kinase C2 domain-containing subunit gamma (Homo sapiens) (UniProt O75747); conditions: Compound concentration 1000.0 nM
[31] = test system: Phosphatidylinositol 4,5-bisphosphate 3-kinase catalytic subunit alpha isoform (Homo sapiens), P42336 [E545K]; conditions: Compound concentration 1000.0 nM
[32] = target: Phosphatidylinositol 4-kinase beta (Homo sapiens) (UniProt Q9UBF8); conditions: Compound concentration 1000.0 nM
[33] = target: Serine/threonine-protein kinase pim-3 (Homo sapiens) (UniProt Q86V86); conditions: Compound concentration 1000.0 nM
[34] = target: Serine/threonine-protein kinase PknB (Mycobacterium tuberculosis) (UniProt P9WI81); conditions: Compound concentration 1000.0 nM
[35] = target: Serine/threonine-protein kinase PLK2 (Homo sapiens) (UniProt Q9NYY3); conditions: Compound concentration 1000.0 nM
[36] = target: Protein kinase C epsilon type (Homo sapiens) (UniProt Q02156); conditions: Compound concentration 1000.0 nM
[37] = target: Protein kinase C iota type (Homo sapiens) (UniProt P41743); conditions: Compound concentration 1000.0 nM
[38] = target: Interferon-induced, double-stranded RNA-activated protein kinase (Homo sapiens) (UniProt P19525); conditions: Compound concentration 1000.0 nM
[39] = target: Ribosomal protein S6 kinase alpha-5 (Homo sapiens) (UniProt O75582); conditions: Compound concentration 1000.0 nM
[40] = target: Ribosomal protein S6 kinase alpha-3 (Homo sapiens) (UniProt P51812); conditions: Compound concentration 1000.0 nM
[41] = target: Serine/threonine-protein kinase Sgk1 (Homo sapiens) (UniProt O00141); conditions: Compound concentration 1000.0 nM
[42] = target: TGF-beta receptor type-1 (Homo sapiens) (UniProt P36897); conditions: Compound concentration 1000.0 nM
[43] = target: Testis-specific serine/threonine-protein kinase 1 (Homo sapiens) (UniProt Q9BXA7); conditions: Compound concentration 1000.0 nM
[44] = target: Sodium-dependent serotonin transporter (Homo sapiens) (UniProt P31645); conditions: Compound concentration 10.0 uM
[45] = target: Histamine H2 receptor (Homo sapiens) (UniProt P25021); conditions: Compound concentration 10.0 uM
Chain of Histamine H2 receptor (Homo sapiens) (P25021 whole entry): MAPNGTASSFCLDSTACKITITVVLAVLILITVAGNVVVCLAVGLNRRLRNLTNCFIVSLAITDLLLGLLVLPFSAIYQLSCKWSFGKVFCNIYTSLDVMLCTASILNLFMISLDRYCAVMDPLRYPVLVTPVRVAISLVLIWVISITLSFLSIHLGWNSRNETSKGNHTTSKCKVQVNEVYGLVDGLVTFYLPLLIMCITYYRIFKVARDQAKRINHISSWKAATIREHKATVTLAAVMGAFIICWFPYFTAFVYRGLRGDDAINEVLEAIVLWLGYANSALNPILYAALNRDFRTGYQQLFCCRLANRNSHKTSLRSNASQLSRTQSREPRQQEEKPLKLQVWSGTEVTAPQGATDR

Chain of Glycogen synthase kinase-3 alpha (Homo sapiens) (P49840 2-483 limits assumed): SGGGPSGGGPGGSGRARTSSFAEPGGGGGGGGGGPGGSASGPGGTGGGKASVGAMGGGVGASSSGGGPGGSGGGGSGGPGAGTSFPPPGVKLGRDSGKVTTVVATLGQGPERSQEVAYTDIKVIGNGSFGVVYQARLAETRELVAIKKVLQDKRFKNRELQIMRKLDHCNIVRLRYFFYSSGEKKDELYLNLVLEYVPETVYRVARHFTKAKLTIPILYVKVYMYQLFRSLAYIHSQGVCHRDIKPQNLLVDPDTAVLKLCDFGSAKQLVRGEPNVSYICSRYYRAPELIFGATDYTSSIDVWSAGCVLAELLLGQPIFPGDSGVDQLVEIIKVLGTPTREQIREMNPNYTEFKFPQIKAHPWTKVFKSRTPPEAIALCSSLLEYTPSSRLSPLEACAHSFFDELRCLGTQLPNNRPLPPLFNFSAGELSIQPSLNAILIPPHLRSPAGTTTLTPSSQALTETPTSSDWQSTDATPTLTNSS
Chain of Serine/threonine-protein kinase NLK (Homo sapiens) (Q9UBE8 whole entry): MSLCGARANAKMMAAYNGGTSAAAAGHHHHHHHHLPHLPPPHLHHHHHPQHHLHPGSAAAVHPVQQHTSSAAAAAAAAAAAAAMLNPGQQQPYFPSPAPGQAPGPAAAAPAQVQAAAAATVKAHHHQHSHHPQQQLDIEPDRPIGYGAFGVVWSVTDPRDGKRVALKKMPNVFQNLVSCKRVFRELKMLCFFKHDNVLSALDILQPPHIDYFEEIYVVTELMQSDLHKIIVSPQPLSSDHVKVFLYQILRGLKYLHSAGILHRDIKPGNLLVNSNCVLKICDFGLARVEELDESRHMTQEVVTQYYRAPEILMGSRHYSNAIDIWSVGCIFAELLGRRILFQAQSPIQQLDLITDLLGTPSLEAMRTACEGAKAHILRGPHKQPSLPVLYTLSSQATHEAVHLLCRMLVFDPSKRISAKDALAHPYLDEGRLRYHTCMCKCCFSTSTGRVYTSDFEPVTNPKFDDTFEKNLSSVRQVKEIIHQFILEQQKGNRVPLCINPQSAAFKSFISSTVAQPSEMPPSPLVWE
Chain of Calcium/calmodulin-dependent protein kinase type II subunit beta (Homo sapiens) (Q13554 whole entry): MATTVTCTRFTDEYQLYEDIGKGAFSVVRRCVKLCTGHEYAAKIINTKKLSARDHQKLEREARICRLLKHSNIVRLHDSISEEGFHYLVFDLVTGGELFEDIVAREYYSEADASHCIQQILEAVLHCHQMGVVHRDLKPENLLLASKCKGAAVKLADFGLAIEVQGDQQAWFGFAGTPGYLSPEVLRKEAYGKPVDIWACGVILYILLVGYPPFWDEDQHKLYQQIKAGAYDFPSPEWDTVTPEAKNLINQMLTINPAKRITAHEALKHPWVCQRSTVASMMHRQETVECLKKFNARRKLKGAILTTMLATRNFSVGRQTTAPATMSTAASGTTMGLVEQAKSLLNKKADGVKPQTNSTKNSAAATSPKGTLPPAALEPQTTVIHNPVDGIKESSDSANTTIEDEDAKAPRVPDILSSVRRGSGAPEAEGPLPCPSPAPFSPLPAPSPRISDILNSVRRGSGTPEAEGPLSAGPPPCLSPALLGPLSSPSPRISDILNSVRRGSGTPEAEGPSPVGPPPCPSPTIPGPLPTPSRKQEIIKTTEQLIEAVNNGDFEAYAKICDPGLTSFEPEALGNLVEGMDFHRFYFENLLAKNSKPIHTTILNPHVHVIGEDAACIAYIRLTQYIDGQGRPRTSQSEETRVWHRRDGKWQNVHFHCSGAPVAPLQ
Chain of TGF-beta receptor type-1 (Homo sapiens) (P36897 whole entry): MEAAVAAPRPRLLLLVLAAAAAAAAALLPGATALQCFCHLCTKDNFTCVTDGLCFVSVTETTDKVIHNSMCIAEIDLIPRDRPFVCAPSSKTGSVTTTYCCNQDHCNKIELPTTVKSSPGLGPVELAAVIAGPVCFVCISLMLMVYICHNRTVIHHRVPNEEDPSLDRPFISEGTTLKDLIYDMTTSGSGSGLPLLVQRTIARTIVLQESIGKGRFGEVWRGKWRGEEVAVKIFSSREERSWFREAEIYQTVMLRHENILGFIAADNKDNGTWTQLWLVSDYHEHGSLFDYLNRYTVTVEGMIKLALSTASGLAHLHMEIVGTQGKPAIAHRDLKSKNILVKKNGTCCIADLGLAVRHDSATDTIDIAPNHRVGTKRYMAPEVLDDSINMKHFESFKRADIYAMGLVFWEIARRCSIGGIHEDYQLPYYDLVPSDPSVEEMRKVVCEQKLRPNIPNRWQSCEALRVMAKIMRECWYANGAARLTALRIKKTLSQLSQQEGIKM
Chain of Serine/threonine-protein kinase Nek1 (Homo sapiens) (Q96PY6 whole entry): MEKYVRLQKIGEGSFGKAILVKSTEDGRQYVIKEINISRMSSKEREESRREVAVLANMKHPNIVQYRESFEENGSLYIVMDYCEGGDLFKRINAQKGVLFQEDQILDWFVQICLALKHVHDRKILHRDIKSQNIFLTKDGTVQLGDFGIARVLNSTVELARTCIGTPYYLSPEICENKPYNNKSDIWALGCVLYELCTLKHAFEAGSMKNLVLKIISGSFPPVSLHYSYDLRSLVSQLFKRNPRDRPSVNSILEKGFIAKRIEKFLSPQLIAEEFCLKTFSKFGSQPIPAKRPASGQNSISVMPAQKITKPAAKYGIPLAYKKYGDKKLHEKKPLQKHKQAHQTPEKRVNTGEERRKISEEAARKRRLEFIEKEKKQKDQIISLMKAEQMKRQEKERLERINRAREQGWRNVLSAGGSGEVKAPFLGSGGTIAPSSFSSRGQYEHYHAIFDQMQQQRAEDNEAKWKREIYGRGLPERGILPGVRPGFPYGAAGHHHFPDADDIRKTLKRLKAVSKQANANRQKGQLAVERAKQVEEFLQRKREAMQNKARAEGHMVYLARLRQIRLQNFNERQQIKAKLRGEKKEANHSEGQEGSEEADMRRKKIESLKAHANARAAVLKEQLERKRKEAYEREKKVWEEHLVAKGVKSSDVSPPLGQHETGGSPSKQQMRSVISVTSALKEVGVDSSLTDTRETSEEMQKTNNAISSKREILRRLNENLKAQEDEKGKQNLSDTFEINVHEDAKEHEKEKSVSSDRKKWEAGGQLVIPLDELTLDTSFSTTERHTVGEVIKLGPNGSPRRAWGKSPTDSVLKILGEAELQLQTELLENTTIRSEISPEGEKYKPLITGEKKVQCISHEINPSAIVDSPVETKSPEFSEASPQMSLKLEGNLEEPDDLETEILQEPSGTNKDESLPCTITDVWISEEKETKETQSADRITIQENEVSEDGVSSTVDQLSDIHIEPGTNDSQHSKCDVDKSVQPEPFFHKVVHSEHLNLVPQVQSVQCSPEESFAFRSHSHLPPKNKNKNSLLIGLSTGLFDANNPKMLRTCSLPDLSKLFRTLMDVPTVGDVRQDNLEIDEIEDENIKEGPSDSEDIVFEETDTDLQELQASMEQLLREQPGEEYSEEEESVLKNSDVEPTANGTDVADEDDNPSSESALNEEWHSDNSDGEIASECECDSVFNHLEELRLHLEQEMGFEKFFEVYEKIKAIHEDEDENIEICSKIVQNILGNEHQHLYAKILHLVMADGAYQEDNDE
Chain of Calcium/calmodulin-dependent protein kinase type 1 (Homo sapiens) (Q14012 whole entry, looked up): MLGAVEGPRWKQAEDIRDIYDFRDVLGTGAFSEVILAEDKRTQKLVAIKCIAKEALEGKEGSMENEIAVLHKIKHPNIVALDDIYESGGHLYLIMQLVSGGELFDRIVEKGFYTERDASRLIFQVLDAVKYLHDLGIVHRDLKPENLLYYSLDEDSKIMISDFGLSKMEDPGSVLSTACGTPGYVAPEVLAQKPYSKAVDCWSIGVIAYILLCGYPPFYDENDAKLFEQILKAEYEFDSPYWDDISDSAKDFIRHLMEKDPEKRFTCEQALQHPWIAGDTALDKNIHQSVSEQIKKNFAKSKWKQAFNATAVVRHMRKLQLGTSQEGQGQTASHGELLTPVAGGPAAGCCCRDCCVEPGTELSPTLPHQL
Chain of Testis-specific serine/threonine-protein kinase 1 (Homo sapiens) (Q9BXA7 whole entry): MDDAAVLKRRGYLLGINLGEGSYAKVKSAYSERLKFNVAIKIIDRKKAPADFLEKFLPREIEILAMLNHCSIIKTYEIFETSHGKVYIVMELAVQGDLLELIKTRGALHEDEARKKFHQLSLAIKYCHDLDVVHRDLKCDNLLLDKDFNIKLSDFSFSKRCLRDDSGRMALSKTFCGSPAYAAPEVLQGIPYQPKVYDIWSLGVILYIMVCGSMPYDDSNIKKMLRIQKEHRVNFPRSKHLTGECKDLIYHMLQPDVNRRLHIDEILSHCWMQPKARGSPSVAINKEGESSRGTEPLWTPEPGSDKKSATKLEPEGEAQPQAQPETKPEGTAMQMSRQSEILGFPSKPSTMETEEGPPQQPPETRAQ

COc1ccc2c(O[C@@H]3C[C@H]4C(=O)N[C@]5(C(=O)O)CC5/C=C\CCCCC[C@H](NC(=O)OC5CCCC5)C(=O)N4C3)cc(-c3csc(NC(=O)C(C)C)n3)nc2c1C (stereo not given in full) [BI 1230]
inactive: residual activity [1] 87% | residual activity [2] 100% | residual activity [3] 85% | residual activity [4] 100% | residual activity [5] 100% | residual activity [6] 99% | residual activity [7] 62% | residual activity [8] 98% | residual activity [9] 100% | residual activity [10] 100% | residual activity [11] 97% | residual activity [12] 100% | residual activity [13] 99% | residual activity [14] 73% | residual activity [15] 87% | residual activity [16] 71% | residual activity [17] 100% | residual activity [18] 100% | residual activity [19] 79% | residual activity [20] 74% | residual activity [21] 100% | residual activity [22] 100% | residual activity [23] 91% | residual activity [24] 100% | residual activity [25] 79% | residual activity [26] 83% | residual activity [27] 99% | residual activity [28] 100% | residual activity [29] 82% | residual activity [30] 86% | residual activity [31] 68% | residual activity [32] 71% | residual activity [33] 94% | residual activity [34] 94% | residual activity [35] 69% | residual activity [36] 58% | residual activity [37] 96% | residual activity [38] 100% | residual activity [39] 100% | residual activity [40] 100% | residual activity [41] 81% | residual activity [42] 100% | residual activity [43] 70% | inhibition [44] -8.36% | inhibition [45] 39.4%

O=C(N[C@H]1CCCCC/C=C\C2C[C@@]2(C(=O)O)NC(=O)[C@@H]2C[C@@H](Oc3ccncc3)CN2C1=O)OC1CCCC1 (stereo not given in full) [BI 1675]
inactive: residual activity [1] 84% | residual activity [2] 100% | residual activity [3] 100% | residual activity [4] 87% | residual activity [5] 99% | residual activity [6] 87% | residual activity [7] 71% | residual activity [8] 100% | residual activity [9] 100% | residual activity [10] 96% | residual activity [11] 86% | residual activity [12] 100% | residual activity [13] 97% | residual activity [14] 56% | residual activity [15] 98% | residual activity [16] 100% | residual activity [17] 100% | residual activity [18] 82% | residual activity [19] 89% | residual activity [20] 91% | residual activity [21] 94% | residual activity [22] 81% | residual activity [23] 100% | residual activity [24] 100% | residual activity [25] 81% | residual activity [26] 82% | residual activity [27] 100% | residual activity [28] 92% | residual activity [29] 84% | residual activity [30] 71% | residual activity [31] 95% | residual activity [32] 81% | residual activity [33] 100% | residual activity [34] 93% | residual activity [35] 93% | residual activity [36] 100% | residual activity [37] 100% | residual activity [38] 100% | residual activity [39] 89% | residual activity [40] 100% | residual activity [41] 100% | residual activity [42] 100% | residual activity [43] 77% | inhibition [44] -6.94% | inhibition [45] 15.6%
